This is an account of results in patent US4242358A, “Method of treatment of algiae” (Societe de Recherches Industrielles (Sori), priority 1979, dated 1980).

Molecules are shown by their SMILES.

The nature of data set [1]: LD50 mice per os (acute toxicity). The conditions noted are these: mouse, in vivo, po.
Data set [2] concerns cramping induced by phenylbenzoquinone. Briefly: antalgic activity: percentage inhibition of cramping induced by phenylbenzoquinone, mice i.p. The conditions noted are these: dose one tenth of LD-50 mice i.p., over 5 minutes, phenylbenzoquinone 0.02% i.p. Format: in vivo. As to the method:
The antalgic activity of the compounds of formula I was determined by measuring the cramping induced by phenylbenzoquinone, as described by Siegmund et al, Proc. Soc. Exp. Biol. Med. ([…]) 95, 729. A painful reaction, characterized by twisting movements and elongation of the abdomen, with scraping of the rear paws, was introduced by the intraperitoneal administration of a 0.02% w/v solution of phenyl-benzoquinone in […] at a rate of 0.5 ml/20 g body weight. The activity was measured by the percentage inhibition in the number of painful symptons over 5 minutes.

Data set [3] is described as follows: clinical double blind test as an antalgic agent. Format: in vivo. The conditions noted are these: 41 patients, 400 mg per day, tablets, 20 days. As to the method: The compound of Example 1 has been tested clinically as an antalgic agent on 41 patients. A double blind test was carried out, using placebos and a dose of 400 mg per day of the active compound, administered as tablets.

Another data set in a line: LD0 rat (acute toxicity). Format: in vivo.
Data set [4] in a line: kidney troubles / tolerance. The conditions noted are these: footnote (a), in connection with ED50 mice per os. The data set is classed as in vivo.
The nature of data set [5]: LD-50 mice i.p. (acute toxicity). The conditions noted are these: mouse, in vivo, ip.
The test system of a further data set is antalgic activity. Briefly: ED50 mice per os antalgic activity. The data set is classed as in vivo. The conditions noted are these: Mus musculus, po.

On to `CC(C)(Oc1cccc(C(=O)c2ccccc2)c1)C(=O)O` [Example 1, 2-(3-benzoyl)-phenoxy-2-methylpropionic acid], for which the LD50 in data set [1] and in data set [5] was 350 mg/kg in each case. Further, in data set [2], the “Percentage of diminution of cramping, Tested compound” value (shortened to “Percentage of diminution of cramping”) was determined as 95%. Besides, in data set [3] (double blind), the “tolerance of the product” value was “excellent”. Besides, in data set [3] (double blind, patients who had received the active compound), the “activity good, cases” value came out at 80%. In addition, the relief of symptoms entry in data set [3] (patients who had received the active compound) was “the symptoms had been relieved”. In addition, the KD0 rat i.p. in “LD0 rat (acute toxicity)” (i.p.) is reported as 540 mg/kg. In “LD0 rat (acute toxicity)” (per os), the “LD0 rat per os” value is listed as “higher than 1600 mg/kg”. For the same compound, the kidney troubles entry in data set [4] was “without kidney troubles”. Also, it took a dose of 35 mg/kg to reach the 50% effect level with antalgic activity (ED50).
Turning to `COc1ccc(C(=O)c2cccc(OC(C)(C)C(=O)O)c2)cc1` [Example 2], the “Percentage of diminution of cramping” value in data set [2] is 97%. In data set [5], this compound had an LD50 of 300 mg/kg.
For `CC(C)(Oc1cccc(C(=O)c2cccc(C(F)(F)F)c2)c1)C(=O)O` [Example 3], in that order: 43% and 300 mg/kg.
With `Cc1ccc(C(=O)c2cccc(OC(C)(C)C(=O)O)c2)cc1` [Example 4], in data set [2], the “Percentage of diminution of cramping” value was found to be 66%. Also, the median lethal dose (LD50) in data set [5] turned out to be 400 mg/kg.
Regarding `Cc1ccc(C(=O)c2cccc(OC(C)(C)C(=O)O)c2)cc1C` [Example 5], the “Percentage of diminution of cramping” value in data set [2] is on record as 100%. For the same compound, the LD50 in data set [5] came to 450 mg/kg.
For `CC(Oc1cccc(C(=O)c2ccccc2)c1)C(=O)O` (stereo not drawn) [Example 6], in that order: 100% and 770 mg/kg.
For `CC(Oc1cccc(C(=O)c2cccc(C(F)(F)F)c2)c1)C(=O)O` (stereo not drawn) [Example 7], in that order: 61% and 350 mg/kg.
The matching figures for `CC(Oc1cccc(C(=O)c2ccc(Cl)cc2Cl)c1)C(=O)O` (stereo not drawn) [Example 8]: 100% and 800 mg/kg.
For `O=C(O)COc1cccc(C(=O)c2ccc(Cl)cc2Cl)c1` [Example 9], in data set [2], the “Percentage of diminution of cramping” value is given as 94%. This compound had an LD50 in data set [5] of 350 mg/kg.
Turning to `Cc1ccc(C(=O)c2cccc(OC(C)(C)C(=O)O)c2)c(C)c1` [Example 10], the “Percentage of diminution of cramping” value in data set [2] was 69%. The LD50 in data set [5] was found to be 600 mg/kg.
The matching figures for `Cc1ccccc1C(=O)c1cccc(OC(C)(C)C(=O)O)c1` [Example 11]: 70% and 600 mg/kg.
For `Cc1ccc(C(=O)c2cccc(OCC(=O)O)c2)cc1` [Example 12], in that order: 92% and 450 mg/kg.
For `Cc1ccc(C(=O)c2cccc(OC(C)C(=O)O)c2)cc1` (stereo not drawn) [Example 13], in data set [2], the “Percentage of diminution of cramping” value is 98%. For the same compound, the LD50 in data set [5] is 700 mg/kg.
Regarding `O=C(OCC(O)CO)c1ccccc1Nc1ccnc2cc(Cl)ccc12` (stereo not drawn) [Glaphenine, 2,3-dihdroxypropyl N-(7-chloro-4-quinolyl)-anthranilate, reference compound], the kidney troubles entry in data set [4] is given as “induces kidney troubles”. In the data set on antalgic activity, this compound registered an ED50 of 25 mg/kg.
